According to PMC9132415, “Identification of 1H-pyrazolo[3,4-b]pyridine derivatives as novel and potent TBK1 inhibitors: design, synthesis, biological evaluation, and molecular docking study” (Journal of Enzyme Inhibition and Medicinal Chemistry, 2022):

How the values were obtained:
Experiment in all cases: Kinase selectivity profile (SelectScreen)
Assay type in all cases: biochemical
Conditions in all cases: remaining kinase activity at 1.0 μM
PI3K(p110b/p85a) = PI3K(p110b/p85a) (Homo sapiens, UniProt P42338)
Chain of PI3K(p110b/p85a) (P42338 whole entry): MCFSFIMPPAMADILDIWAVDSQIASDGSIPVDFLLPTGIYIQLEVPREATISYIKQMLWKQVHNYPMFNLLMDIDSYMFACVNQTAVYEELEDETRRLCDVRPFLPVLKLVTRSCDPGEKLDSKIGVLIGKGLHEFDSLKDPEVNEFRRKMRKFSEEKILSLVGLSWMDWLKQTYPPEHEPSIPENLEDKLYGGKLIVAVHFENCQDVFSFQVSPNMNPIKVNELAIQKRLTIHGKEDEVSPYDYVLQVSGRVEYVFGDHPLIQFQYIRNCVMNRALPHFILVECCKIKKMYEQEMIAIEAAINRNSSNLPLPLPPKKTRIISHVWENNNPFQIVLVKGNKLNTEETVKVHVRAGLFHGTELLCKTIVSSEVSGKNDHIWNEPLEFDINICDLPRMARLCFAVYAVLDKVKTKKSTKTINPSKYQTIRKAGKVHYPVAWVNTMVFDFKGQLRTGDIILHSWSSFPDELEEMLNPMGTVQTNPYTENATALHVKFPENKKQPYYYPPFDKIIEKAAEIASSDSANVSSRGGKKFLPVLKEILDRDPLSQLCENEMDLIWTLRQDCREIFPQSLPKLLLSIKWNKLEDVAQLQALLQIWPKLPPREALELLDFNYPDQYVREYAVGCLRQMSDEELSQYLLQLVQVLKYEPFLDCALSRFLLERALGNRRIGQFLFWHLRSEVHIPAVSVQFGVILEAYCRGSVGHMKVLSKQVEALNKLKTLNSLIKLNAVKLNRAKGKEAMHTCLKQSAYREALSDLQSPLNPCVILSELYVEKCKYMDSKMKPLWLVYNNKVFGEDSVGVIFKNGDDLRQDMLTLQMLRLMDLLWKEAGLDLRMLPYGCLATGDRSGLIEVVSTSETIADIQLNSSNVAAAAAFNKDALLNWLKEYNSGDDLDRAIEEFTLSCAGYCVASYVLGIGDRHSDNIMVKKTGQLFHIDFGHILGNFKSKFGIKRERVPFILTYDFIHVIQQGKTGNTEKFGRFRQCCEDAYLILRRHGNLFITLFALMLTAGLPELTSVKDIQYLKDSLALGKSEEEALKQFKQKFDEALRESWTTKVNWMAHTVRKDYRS
Chain of PI3K(p110b/p85a) (P27986 whole entry partner): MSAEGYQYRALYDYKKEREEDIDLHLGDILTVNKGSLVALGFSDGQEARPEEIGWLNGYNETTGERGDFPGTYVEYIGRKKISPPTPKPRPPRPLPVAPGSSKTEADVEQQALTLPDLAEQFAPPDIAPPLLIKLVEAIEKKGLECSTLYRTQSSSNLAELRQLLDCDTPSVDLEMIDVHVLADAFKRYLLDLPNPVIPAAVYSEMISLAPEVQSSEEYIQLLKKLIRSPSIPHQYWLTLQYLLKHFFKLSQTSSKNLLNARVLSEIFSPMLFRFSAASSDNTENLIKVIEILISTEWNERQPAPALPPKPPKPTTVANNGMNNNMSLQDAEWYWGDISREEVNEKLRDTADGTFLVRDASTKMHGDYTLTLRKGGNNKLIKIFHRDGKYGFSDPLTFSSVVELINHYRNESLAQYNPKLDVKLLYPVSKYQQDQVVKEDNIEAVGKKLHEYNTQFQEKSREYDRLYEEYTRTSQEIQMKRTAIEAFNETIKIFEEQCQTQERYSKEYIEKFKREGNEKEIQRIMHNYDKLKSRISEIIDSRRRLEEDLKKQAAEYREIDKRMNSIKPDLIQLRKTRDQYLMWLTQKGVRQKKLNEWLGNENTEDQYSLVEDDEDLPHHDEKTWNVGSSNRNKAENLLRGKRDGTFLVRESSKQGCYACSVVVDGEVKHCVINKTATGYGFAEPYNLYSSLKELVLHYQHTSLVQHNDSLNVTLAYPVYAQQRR
Experimental: (§1) Compound 15y was evaluated for their inhibitory activities against 31 kinases at a single concentration (1 µM). Two different assay platforms were available for profiling—activity and binding. The Z′-LYTE and Adapta kinase activity assays were used most extensively for profiling and a smaller subset of kinases might be profiled using the LanthaScreen Eu Kinase Binding Assays.

EphA5 = EphA5 (Homo sapiens, UniProt P54756)
Experimental: as §1

SAPK2a = SAPK2a (Homo sapiens, UniProt Q16539)
Chain of SAPK2a (Q16539 whole entry): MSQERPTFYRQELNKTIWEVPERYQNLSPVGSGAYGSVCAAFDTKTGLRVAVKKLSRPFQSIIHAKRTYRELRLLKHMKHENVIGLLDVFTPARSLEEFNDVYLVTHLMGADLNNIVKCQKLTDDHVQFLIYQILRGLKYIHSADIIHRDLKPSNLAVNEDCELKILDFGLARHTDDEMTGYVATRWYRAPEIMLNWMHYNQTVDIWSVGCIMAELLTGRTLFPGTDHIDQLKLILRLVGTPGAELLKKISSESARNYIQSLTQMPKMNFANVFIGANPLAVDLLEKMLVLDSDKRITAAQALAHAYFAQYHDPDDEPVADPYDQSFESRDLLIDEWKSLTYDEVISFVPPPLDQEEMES
Experimental: as §1

PKA = PKA (Homo sapiens, UniProt P17612)
Experimental: as §1

MEK1 = MEK1 (Homo sapiens, UniProt Q02750)
Chain of MEK1 (Q02750 whole entry): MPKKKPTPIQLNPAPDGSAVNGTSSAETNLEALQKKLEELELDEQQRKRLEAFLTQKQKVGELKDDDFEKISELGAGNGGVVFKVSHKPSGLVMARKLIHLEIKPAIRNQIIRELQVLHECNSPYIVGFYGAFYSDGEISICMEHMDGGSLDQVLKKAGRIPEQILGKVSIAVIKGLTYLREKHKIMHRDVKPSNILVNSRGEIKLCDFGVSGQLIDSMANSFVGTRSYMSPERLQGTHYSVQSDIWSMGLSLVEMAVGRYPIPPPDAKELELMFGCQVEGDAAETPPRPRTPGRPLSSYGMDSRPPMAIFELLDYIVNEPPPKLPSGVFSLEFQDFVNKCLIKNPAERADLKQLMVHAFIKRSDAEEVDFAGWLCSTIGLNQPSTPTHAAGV
Experimental: as §1

eEF-2K = eEF-2K (Homo sapiens, UniProt O00418)
Chain of eEF-2K (O00418 whole entry): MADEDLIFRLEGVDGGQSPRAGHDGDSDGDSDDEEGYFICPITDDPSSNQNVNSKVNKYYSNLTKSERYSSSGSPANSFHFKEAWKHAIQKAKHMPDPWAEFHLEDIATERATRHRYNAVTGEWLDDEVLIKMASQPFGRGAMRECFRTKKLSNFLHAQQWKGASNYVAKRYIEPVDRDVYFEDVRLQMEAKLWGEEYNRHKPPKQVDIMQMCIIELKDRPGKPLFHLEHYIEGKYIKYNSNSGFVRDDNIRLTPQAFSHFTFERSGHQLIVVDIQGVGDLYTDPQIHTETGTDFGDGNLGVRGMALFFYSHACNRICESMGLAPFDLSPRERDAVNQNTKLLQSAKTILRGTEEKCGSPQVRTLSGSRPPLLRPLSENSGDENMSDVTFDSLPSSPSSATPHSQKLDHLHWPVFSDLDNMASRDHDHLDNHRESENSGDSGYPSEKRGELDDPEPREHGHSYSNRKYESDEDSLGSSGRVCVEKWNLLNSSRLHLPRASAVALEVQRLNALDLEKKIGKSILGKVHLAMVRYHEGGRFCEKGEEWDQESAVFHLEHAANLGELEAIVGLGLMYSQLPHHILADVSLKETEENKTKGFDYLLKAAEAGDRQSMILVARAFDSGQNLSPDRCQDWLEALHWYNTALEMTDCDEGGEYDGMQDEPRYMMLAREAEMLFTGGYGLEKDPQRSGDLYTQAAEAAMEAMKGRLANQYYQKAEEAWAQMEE
Experimental: as §1

Rse = Rse (Homo sapiens, UniProt Q06418)
Experimental: as §1

PKCθ = PKCθ (Homo sapiens, UniProt Q04759)
Chain of PKCθ (Q04759 whole entry): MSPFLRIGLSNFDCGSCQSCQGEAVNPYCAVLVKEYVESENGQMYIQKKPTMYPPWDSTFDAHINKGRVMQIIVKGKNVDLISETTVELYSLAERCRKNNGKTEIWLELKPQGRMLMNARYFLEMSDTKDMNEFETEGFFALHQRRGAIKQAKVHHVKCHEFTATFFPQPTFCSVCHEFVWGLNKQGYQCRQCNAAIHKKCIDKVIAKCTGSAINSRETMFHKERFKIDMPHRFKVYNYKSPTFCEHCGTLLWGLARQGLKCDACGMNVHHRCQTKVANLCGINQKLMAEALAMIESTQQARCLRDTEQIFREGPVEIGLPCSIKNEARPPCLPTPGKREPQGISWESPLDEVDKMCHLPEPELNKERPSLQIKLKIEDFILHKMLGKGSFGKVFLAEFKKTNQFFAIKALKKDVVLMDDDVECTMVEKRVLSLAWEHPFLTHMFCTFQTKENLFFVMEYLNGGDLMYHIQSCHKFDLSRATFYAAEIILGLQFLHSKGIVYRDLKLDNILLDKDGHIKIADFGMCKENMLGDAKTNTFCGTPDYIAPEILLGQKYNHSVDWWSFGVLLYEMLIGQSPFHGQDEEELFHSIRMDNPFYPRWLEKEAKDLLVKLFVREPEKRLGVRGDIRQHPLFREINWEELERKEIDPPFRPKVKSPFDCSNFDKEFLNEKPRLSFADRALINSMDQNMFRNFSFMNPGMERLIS
Experimental: as §1

mTOR = mTOR (Homo sapiens, UniProt P42345)
Experimental: as §1

MAPKAP-K2 = MAPKAP-K2 (Homo sapiens, UniProt P49137)
Chain of MAPKAP-K2 (P49137 whole entry): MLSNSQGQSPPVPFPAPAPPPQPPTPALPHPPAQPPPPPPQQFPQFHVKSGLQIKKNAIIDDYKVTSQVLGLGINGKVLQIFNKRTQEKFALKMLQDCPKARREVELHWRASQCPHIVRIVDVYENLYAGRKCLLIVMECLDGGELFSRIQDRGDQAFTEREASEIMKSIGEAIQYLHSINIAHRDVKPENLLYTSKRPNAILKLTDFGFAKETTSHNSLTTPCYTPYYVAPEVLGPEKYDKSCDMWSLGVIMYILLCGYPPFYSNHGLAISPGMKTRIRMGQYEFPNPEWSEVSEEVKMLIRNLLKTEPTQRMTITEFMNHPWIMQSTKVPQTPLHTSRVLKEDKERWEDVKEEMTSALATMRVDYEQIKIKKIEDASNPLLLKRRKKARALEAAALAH
Experimental: as §1

PKG1α = PKG1α (Homo sapiens, UniProt Q13976)
Chain of PKG1α (Q13976 whole entry): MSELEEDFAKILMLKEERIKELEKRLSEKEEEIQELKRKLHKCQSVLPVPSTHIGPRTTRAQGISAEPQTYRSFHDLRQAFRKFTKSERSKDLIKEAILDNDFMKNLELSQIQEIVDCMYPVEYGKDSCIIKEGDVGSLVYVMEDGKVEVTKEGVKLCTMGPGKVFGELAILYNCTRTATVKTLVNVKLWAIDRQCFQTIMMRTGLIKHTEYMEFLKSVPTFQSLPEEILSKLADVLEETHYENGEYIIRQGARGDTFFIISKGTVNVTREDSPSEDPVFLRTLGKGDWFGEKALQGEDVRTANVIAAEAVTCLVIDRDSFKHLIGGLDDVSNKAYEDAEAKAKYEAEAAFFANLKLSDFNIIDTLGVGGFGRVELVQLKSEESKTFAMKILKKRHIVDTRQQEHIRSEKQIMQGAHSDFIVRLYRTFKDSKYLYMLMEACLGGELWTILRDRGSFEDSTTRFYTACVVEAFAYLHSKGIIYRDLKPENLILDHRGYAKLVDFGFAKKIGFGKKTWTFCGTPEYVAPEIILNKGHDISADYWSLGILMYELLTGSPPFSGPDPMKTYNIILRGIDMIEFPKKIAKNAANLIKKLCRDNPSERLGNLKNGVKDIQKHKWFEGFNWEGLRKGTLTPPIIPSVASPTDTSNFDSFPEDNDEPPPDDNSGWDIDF
Experimental: as §1

Cc1nc2c(F)cc(-c3n[nH]c4ncc(-c5cccc(S(N)(=O)=O)c5)cc34)cc2n1C(C)C [Compound 15y]
%kinase activity @ 1.0 μM, PI3K(p110b/p85a) (PI3K(p110b/p85a)): 95% | %kinase activity @ 1.0 μM, EphA5 (EphA5): 51% | %kinase activity @ 1.0 μM, SAPK2a (SAPK2a): 60% | %kinase activity @ 1.0 μM, PKA (PKA): 84% | %kinase activity @ 1.0 μM, MEK1 (MEK1): 52% | %kinase activity @ 1.0 μM, eEF-2K (eEF-2K): 108% | %kinase activity @ 1.0 μM, Rse (Rse): 49% | %kinase activity @ 1.0 μM, PKCθ (PKCθ): 33% | %kinase activity @ 1.0 μM, mTOR (mTOR): 30% | %kinase activity @ 1.0 μM, MAPKAP-K2 (MAPKAP-K2): 95% | %kinase activity @ 1.0 μM, PKG1α (PKG1α): 54%
